Experimental data published in patent US20080124310A1, “Bead based receptor biology” (priority 2006, published 2008).

How the values were obtained:
Assay type in all cases: cell-based, murine
RAW macrophages = assay: Biochemical measurement of protein levels in fractions of drug treated RAW macrophages
Text: A now well established side effect of ethanol is to prevent heart attack. Thus the common effects of statins, propranolol, and ethanol must be closely linked to the central mechanism that is the most important pharmacological target of heart attack and thus atherosclerosis prevention. It remains possible that the preventative effect of statins results from their effect to inhibit particle engulfment and foam cell formation by macrophages leading to atherosclerotic plaques. We created a foam cell model and quantitative confocal assays for micro particle engulfment by macrophages. The engulfment of particles by macrophages and the generation of free radicals by leukocytes are the key physiological actions that lead to the generation of foam cells that are the center of atherosclerotic plaques. We have made a cellular model system of leukocytes or activated leukocytes or leukocytes treated over time to examine the effects drugs and biopolymer modification materials over time on the activation of receptors at the site of modified or ligand coated particles. The drugs used in this system to examine the kinetics of receptor function at modified particles may result in changes to the cell including changes in gene expression at the level of DNA transcription, RNA production, accumulation or post-transcription processing, mRNA production accumulation or expression all of which may also alter protein expression. We examined the use of these model systems with and without beads as a system to screen the effects of drugs that are known to prevent heart attack and stroke in model of leukocyte cells within atherosclerotic plaques. We observe that drugs that effect receptor associated signaling may also alter gene, RNA or ultimately protein expression in cells resulting in changes in protein levels. Proteins that change levels in response to a drug may be themselves drug target proteins.
The drugs used in the leukocyte model system to examine the kinetics of receptor function at modified particles may result in changes to the cell including changes in gene expression at the level of DNA transcription, RNA production, accumulation or post-transcription processing, mRNA production accumulation or expression all of which may also alter protein expression. We examined the use of these model systems with and without beads as a system to screen the effects of drugs that are known to effect receptor response at or near the cell surface or interior of the cells. We observe that drugs that effect receptor associated signaling may also alter gene, RNA or ultimately protein expression in cells resulting in changes in protein levels. Proteins that change levels in response to a drug may be themselves drug target proteins. […] The RAW leukocyte model foam cells system alone or in combination with the bead based biology system can be used to characterize the effects of receptor or cellular activation in terms of second messengers such as lipid and protein phosphorylation with respect to drug treatment or time in the cytosol of leukocytes (FIG. 67).

Thrombospondin = assay: Surface expression of thrombospondin on macrophages
Text: Thrombospondin is a protein that is known to bind apolipoprotein and lipid receptors expressed on the surface of cells including the scavenger receptor class B multi ligand receptor CD36 associated with atherosclerosis and Alzheimer's.

RAW 264.7 macrophages [1] = assay: Uptake of free fluorescent DI-LDL or OX-LDL, red fluorescence confocal microscopy; conditions: 594 nm
Procedure: RAW 264.7 macrophages were cultured in alpha MEM with 5% fetal calf serum as described. The effects of lovastatin on IgG and LDL coated micro-particle engulfment at 0, 50 nM, 100 nM, 500 nM, 1 mM and higher was tested. The accumulation of free DI-LDL was quantified directly by its red fluorescence. External particles were stained green with secondary anti rabbit FITC and then cells were permeablized and all particles stained red with secondary anti rabbit CY3. Thus engulfed particles appear red while external particles appear yellow. Beads within the cells carrying only the red signal (engulfed) and not also the green signal {red+green=yellow} (outside) were quantified for accumulation assays using both total fluorescence in the green channel and by counting individual beads in three fields on three independent cover slips for each concentration.

RAW 264.7 macrophages [2] = assay: Phagocytic receptor assay: engulfment of IgG or ligand coated particles by RAW macrophages (foam cell model), confocal
Text: FIG. 25, panels A and B, illustrate respectfully a method for measurement of phagocytic receptors and a method for measuring transfection or delivery of nucleic acids and simultaneous measurement of particle engulfment using a single cell multi label confocal microscope experiment. A direct or surrogate measurement of receptor function or receptor pathway activity must be made in order establish the role of potential therapeutic target proteins in receptor function. IgG, complement, low density lipoprotein (LDL), oxidatively modified LDL (OX-LDL). Acetyl-LDL, apolipoproteins, lipoproteins, lipopolysaccharide (LPS), scavenger and other receptor functions can be measured by the accumulation of particles. The particles may themselves be comprised in part of fluorescent materials or can be directly stained with fluorescent or other colored materials or can be bound by proteins that directly or indirectly permit the attachment of fluorescent, chemiluminescent or other reporter molecules. The beads may be stained in live cells or cells fixed with formalin or paraformaldehyde or organic solvents such as alcohol and acids or by other means. The beads can be stained both before or after internalization with or without the permeabilization of the cells by detergents or organic solvents. The beads may be cells that can be lysed and imaged directly. The cells may be counter stained for the presence of specific proteins using antibodies or may express fluorescent protein constructs or contain fluorescent silencing RNA or DNA constructs or biopolymer modulating agents or drugs (FIG. 25).
We created a foam cell model and quantitative confocal assays for micro particle engulfment by macrophages. The engulfment of particles by macrophages and the generation of free radicals by leukocytes are the key physiological actions that lead to the generation of foam cells that are the center of atherosclerotic plaques. We made a cellular model system of foam cells or activated leukocytes and examine the effects of moderate levels of alcohol over time on the accumulation of particles and generation of free radicals at the site of particle accumulation compared to statins and propranolol. The model systems will consist of RAW macrophages that engulf hydrophobic polystyrene microparticles with or without coating by ligands or mixtures of ligands such as those found in cellular growth media, or free fluorescently labeled DI-LDL, OX-LDL, Acetyl LDL or other. Live cell confocal microscopy was used to quantify the effects of ethanol, compared to lovastatin and propranolol, on particle engulfment.
External particles were stained green with secondary anti rabbit FITC and then cells were permeablized and all particles stained red with secondary anti rabbit CY3. Thus engulfed particles appear red while external particles appear yellow. Beads within the cells carrying only the red signal (engulfed) and not also the green signal {red+green=yellow} (outside) were quantified for accumulation assays using both total fluorescence in the green channel and by counting individual beads in three fields on three independent cover slips for each concentration.
RAW 264.7 macrophages were cultured in alpha MEM with 5% fetal calf serum as described. The effects of lovastatin on IgG and LDL coated micro-particle engulfment at 0, 50 nM, 100 nM, 500 nM, 1 mM and higher was tested. The accumulation of free DI-LDL was quantified directly by its red fluorescence. External particles were stained green with secondary anti rabbit FITC and then cells were permeablized and all particles stained red with secondary anti rabbit CY3. Thus engulfed particles appear red while external particles appear yellow.

CC[C@H](C)C(=O)O[C@H]1C[C@@H](C)C=C2C=C[C@H](C)[C@H](CC[C@@H]3C[C@@H](O)CC(=O)O3)[C@H]21 [lovastatin]
levels of cytosolic proteins (FIG. 57) (RAW macrophages; cytosol fraction): alter levels of proteins in the membranes
levels of proteins in the extracellular matrix (FIG. 55) (RAW macrophages; matrix fraction): alter levels of proteins in the extracellular matrix
levels of proteins in the membranes (FIG. 54) (RAW macrophages; membrane fraction): alter levels of proteins in the membranes
levels of proteins in the secretions (FIG. 56) (RAW macrophages; secreted proteins): alter levels of proteins in the secretions
expression of Thrombospondin on the cell surface (Thrombospondin): lowered the expression of Thrombospondin
accumulation of free cholesterol (free fluorescent DI-LDL or OX-LDL) (RAW 264.7 macrophages [1]): no effect
engulfment / accumulation of IgG or ligand coated particles (RAW 264.7 macrophages [2]; RAW macrophages, confocal): reduced the capacity of RAW macrophages to engulf particles
dose that directly prevents engulfment of particles (RAW 264.7 macrophages [2]; cultured macrophage leukocytes): ≤ 100 nM
